Patent US10000510B2, “Salt forms of ceftolozane” (Merck Sharp & Dohme Corp., priority 2014, dated 2018)
Where a name gives a salt, the structure may show the parent alone.

Key:
Type in all cases: physicochemical
[1] = Stability of ceftolozane salts at 40° C. and 75% RH for one week, loss of purity by HPLC; details: 40° C. and 75% relative humidity, one week (7 days), initial purity minus purity after storage
Description: (§1) The ceftolozane salt forms provided herein can also be evaluated for stability upon exposure to high temperatures and humidity. The stability evaluation of the ceftolozane salts can be carried out by HPLC analysis using, for example, the method described in Example 1. For examples, the ceftolozane salt forms can be subjected to 40° C. and 75% relative humidity (RH) for one week (7 days) or, 25° C. and 60% relative humidity (RH) for two weeks or for four weeks. The purity and loss of purity (LOP) of these samples can be evaluated by measuring the amount of ceftolozane by HPLC (e.g., Example 1). The results of the stability analysis are summarized in the following Table B: Unless otherwise indicated herein, the HPLC method of Example 1 was used to measure ceftolozane purity disclosed herein. The loss of purity (LOP) was calculated as the difference between the initial ceftolozane purity and the ceftolozane purity after being subject to the conditions of the stability test (e.g., at 40° C. and 75% relative humidity (RH) for one week), wherein the purity was measured using the HPLC method described below. Standards and samples are prepared in 50 mM sodium perchlorate monohydrate, pH 4.00. A quantitation standard (Standard Solution 1) and check standard (Standard Solution 2) are both prepared at the target working concentration of 0.3 mg/mL taking into consideration the potency, as-is of the standard. The samples are prepared at the target active concentration of 0.3 mg/mL by preparing a sample at 0.04% (w/v). [table]

[2] = Stability of ceftolozane salts at 25° C. and 60% RH for two or four weeks, loss of purity by HPLC; details: 25° C. and 60% relative humidity; for 4 w, Loss of Purity: four weeks; for 2 w, Loss of Purity: two weeks (14 days)
Description: as §1

[3] = Dry stability of lyophilized ceftolozane zwitterion/stabilizing agent compositions at 40° C./75% RH, purity by HPLC; details: lyophilized solid
Description: The following HPLC method was used to measure ceftolozane purity disclosed in Examples 13 through 15.
HPLC conditions for Ceftolozane Purity:
Mobile Phase A: 50 mM Sodium Perchlorate, pH 2.5
Mobile Phase B: 20% ACN in 63 mM Sodium Perchlorate, pH 2.5
Column: Phenomenex Develosil ODS-UG-5, 5 μm, 250 mm×4.6 mm
Sample Solution: 1 mg/mL in water
Active ceftolozane zwitterion (“Cef”; 1620 mg; 2.1 mmol) and sodium chloride (122 mg; 2.1 mmol) were dissolved in 8.25 mL of sterile water to obtain pale yellowish solution. Aliquoted the complex solution to 5-mL freeze drying vials (0.45 mL per vial, 18 vials in total) which were positioned in a lyophilization tray. The key lyophilization conditions included freezing at −50° C. to −55° C. for 2 hours, primary drying at −30° C., 50 millitorrs for 40 hours, secondary drying at 20° C., 50 millitorrs for 7 hours, and storing at 5° C., 600 millitorrs until harvesting. The sublimate was condensed at −60° C. The freeze drying vials were harvested, inserted with proper stoppers, sealed with crimp seals, and labeled as Cef:NaCl(1:1) for dry stability evaluation at 40° C./75% RH. The vials were stored at 40° C. and 75% relative humidity (RH).
The following compositions were prepared analogously: ceftolozane zwitterion and sodium chloride (1:0.5) complex, ceftolozane zwitterion and sodium chloride (1:2) complex, ceftolozane zwitterion and sodium sulfate (1:1) complex, ceftolozane zwitterion and sodium sulfate (1:0.5) complex, ceftolozane zwitterion and sodium sulfate (1:2) complex, ceftolozane zwitterion and calcium chloride (1:1) complex, ceftolozane zwitterion and calcium chloride (1:0.5) complex, ceftolozane zwitterion and calcium chloride (1:2) complex, ceftolozane zwitterion and magnesium chloride (1:1) complex, ceftolozane zwitterion and magnesium chloride (1:0.5) complex, ceftolozane zwitterion and magnesium chloride (1:2) complex.
These compositions and ceftolozane zwitterion alone were evaluated for stability at 40° C./75% RH by HPLC. The dry samples were dissolved in water for loading onto the column.

[4] = listed as phosphate salt of ceftolozane

1 w, Loss of Purity [1] [%]	4 w, Loss of Purity [2] [%]	2 w, Loss of Purity [2] [%]	Molecule	other results
22.4	5.1	1.2	Cn1c(N)c(NC(=O)NCCN)c[n+]1CC1=C(C(=O)O)N2C(=O)[C@@H](NC(=O)/C(=N\OC(C)(C)C(=O)O)c3nsc(N)n3)[C@H]2SC1 [Ceftolozane sulfate, 5-amino-4-{[(2-aminoethyl)carbamoyl]amino}-2-{[(6R,7R)-7-({(2Z)-2-(5-amino-1,2,4-thiadiazol-3-yl)-2-[(1-carboxy-1-methylethoxy)imino]acetyl}amino)-2-carboxy-8-oxo-5-thia-1-azabicyclo[4.2.0]oct-2-en-3-yl]methyl}-1-methyl-1H-pyrazolium monosulfate, reference compound]	
14.4	7.4	3.6	Cn1c(N)c(NC(=O)NCCN)c[n+]1CC1=C(C(=O)[O-])N2C(=O)[C@@H](NC(=O)/C(=N\OC(C)(C)C(=O)O)c3nsc(N)n3)[C@H]2SC1 [Ceftolozane zwitterion, (6R,7R)-3-[(5-amino-4-{[(2-aminoethyl)carbamoyl]amino}-1-methyl-1H-pyrazol-2-ium-2-yl)methyl]-7-({(2Z)-2-(5-amino-1,2,4-thiadiazol-3-yl)-2-[(1-carboxy-1-methylethoxy)imino]acetyl}amino)-8-oxo-5-thia-1-azabicyclo[4.2.0]oct-2-ene-2-carboxylate]	% purity of Ceftolozane, 3 day ([3]; 3 day at 40° C./75% RH): 88.0%; % purity of Ceftolozane, 7 day ([3]; 7 day at 40° C./75% RH): 84.5%; % purity of Ceftolozane, 14 day ([3]; 14 day at 40° C./75% RH): 77.9%; % purity of Ceftolozane, T0 ([3]; T0 (start of storage at 40° C./75% RH)): 92.6%
22.6	5.8	3.5	ceftolozane ketoglutarate	
9.3	5.2	3.6	ceftolozane maleate	
8.3	4.3	1.3	ceftolozane mesylate	

More lines, now with the values behind:

Molecule	1 w, Loss of Purity [1] [%]	4 w, Loss of Purity [2] [%]	2 w, Loss of Purity [2] [%]	other results
Cn1c(N)c(NC(=O)NCCN)c[n+]1CC1=C(C(=O)O)N2C(=O)[C@@H](NC(=O)/C(=N\OC(C)(C)C(=O)O)c3nsc(N)n3)[C@H]2SC1 [Ceftolozane chloride, ceftolozane chloride]	7.5	2.9	1.0	1 w, Loss of Purity ([1]; listed as chloride salt of ceftolozane): 7.5%
ceftolozane bromide	13.3	2.3	0.4	2 w, Loss of Purity ([2]; listed as bromide salt of ceftolozane): 0.4%
ceftolozane edisylate	9.6	1.7	1.5	4 w, Loss of Purity ([2]; listed as edisylate salt of ceftolozane): 1.7%
ceftolozane phosphate	30.9	13.7	4.5	1 w, Loss of Purity [1, 4]: 30.9%; 4 w, Loss of Purity [2, 4]: 13.7%; 2 w, Loss of Purity [2, 4]: 4.5%
